For experiment [1], the target named is T1, human Tom70 (residues 108–608) (Homo sapiens, UniProt O94826).
T1 construct: human Tom70 (residues 108–608); Avi tag (N, cleaved yes); His6 tag (N, cleaved yes); (GGS)5 linker and TEV cleavage site (N, cleaved yes); made in house; host or cells: E. coli BL21 (DE3)
T1 sequence (O94826 108-608): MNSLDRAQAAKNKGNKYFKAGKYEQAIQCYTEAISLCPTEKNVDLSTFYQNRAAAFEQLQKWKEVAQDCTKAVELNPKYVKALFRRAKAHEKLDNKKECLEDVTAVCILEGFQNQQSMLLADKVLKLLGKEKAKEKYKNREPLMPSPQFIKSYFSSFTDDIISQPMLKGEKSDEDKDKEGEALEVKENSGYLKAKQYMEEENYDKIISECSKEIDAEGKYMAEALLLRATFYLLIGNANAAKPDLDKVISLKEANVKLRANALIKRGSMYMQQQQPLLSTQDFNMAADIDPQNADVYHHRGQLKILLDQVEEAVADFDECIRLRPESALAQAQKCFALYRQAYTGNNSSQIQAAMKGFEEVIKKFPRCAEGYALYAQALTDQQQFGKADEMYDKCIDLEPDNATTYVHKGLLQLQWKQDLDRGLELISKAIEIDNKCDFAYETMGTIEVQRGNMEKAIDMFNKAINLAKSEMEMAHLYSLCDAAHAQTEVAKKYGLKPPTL
The experiment can be described thus: ITC, Hsp90 binding to free Tom70. How it is done:
(§1) All ITC experiments were recorded at 20°C using a Microcal-PEAQ-ITC calorimeter (Malvern Panalytical). Experiments involving full-length Hsp90 or the Hsp90EEVD peptide were carried out in buffer containing 20 mM sodium phosphate (pH 8), 150 mM NaCl, 2 mM TCEP, and 10% glycerol. 10% glycerol was required to prevent precipitation of Hsp90 during titration.
(§2) Unbound Orf9bHelix was removed via multiple rounds of concentration and buffer exchange on a concentrator (Vivaspin 20, Satorius). Orf9b truncation mutant complexes were produced in the same way. Experiments involving the binding of Orf9bHelix titrated into Tom70 were carried out in buffer containing 20 mM sodium phosphate (pH 7), 100 mM NaCl, and 2 mM TCEP. Orf9bHelix (120 μM) was titrated into 15 μM Tom70 or Tom70:Hsp90EEVD complex (15 μM Tom70: 400 μM Hsp90EEVD).
(§3) All data was fit using a 1:1 binding model to obtain the reported thermodynamic parameters using the software provided by the instrument. Reported parameters are the average and standard deviation of individual runs of the experiment, as outlined in supplementary information (Figs S3 and S9).

Experiment [2] concerns Tom70:Orf9b complex. Type of experiment: binding, human Tom70; SARS-CoV-2 Orf9b.
Experiment [3] deals with Tom70:Orf9b complex. On the set-up: species or system human Tom70; SARS-CoV-2 Orf9b. The note with it: read-out: binding affinity (KD) of full-length Hsp90 to Tom70:Orf9b complex; pH 8.
Experiment [4] concerns Tom70. The experiment can be described thus: BLI kinetics, Hsp90 with free Tom70. Type of experiment: binding, human. The method, then:
We therefore indirectly estimated kon values by combining koff values obtained from BLI with KD values determined by ITC, i.e., kon=koffBLI/KDITC .
Biotinylated Hsp90 proteins were immobilized onto streptavidin biosensor probes, and experiments were conducted in buffer containing 20 mM sodium phosphate (pH 7), 150 mM NaCl, 1% BSA, 0.6 M sucrose, and 1 mM TCEP[68]. […] To combat heterogenous binding, dissociation curves were fit with a two-phase exponential curve. Due to the association rate (kon) being too rapid to quantify, kon values were indirectly estimated by combining koff values obtained from BLI with KD values determined by ITC ( kon=koffBLI/KDITC ). All data are corrected for non-specific binding. Error is given as the standard deviation of at least two measurements.
(In BLI a coated tip is dipped into the sample, and binding shifts an interference pattern.)

Experiment [5] deals with T2, Tom70:Orf9bHelix complex (Homo sapiens, UniProt O94826).
T2 construct: human Tom70 (residues 108–608); Avi tag (N, cleaved yes); His6 tag (N, cleaved yes); (GGS)5 linker and TEV cleavage site (N, cleaved yes); host or cells: E. coli BL21 (DE3) for Tom70; synthetic peptide
T2 sequence (P0DTD2 44-77 partner limits assumed, one chain of several): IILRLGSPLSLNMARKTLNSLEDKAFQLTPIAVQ
The class given is binding, human Tom70; SARS-CoV-2 Orf9b. The note with it: pH 8.

The target of experiment [6] is T2, Tom70:Orf9bHelix complex. The experiment can be described thus: biochemical. The class given is binding, human Tom70; SARS-CoV-2 Orf9b.
Experiment [7] deals with T1, human Tom70 (residues 108–608). In words: ITC, Hsp90EEVD peptide binding to free Tom70. The note with it: 20°C, pH 8, 150 mM NaCl, 2 mM TCEP, 10% glycerol, Hsp90EEVD (400–500 μM) into Tom70 (30 μM), mean ± SD of 3 measurements, read-out: KD of Hsp90EEVD to Tom70 alone. How it is done: as §1, §2, §3
Background: ITC needs no label: the signal is the heat of the interaction.

Where no end group is shown, it is not given here.

In general, Kd refers to the free concentration of one partner at which half of the binding sites on the other are occupied at equilibrium, for simple one-to-one binding. With “Hsp90: human Hsp90α (residues 1–732), expressed in E. coli”, the Kd came to 3 ± 1 µM in experiment [1] (20°C, 20 mM sodium phosphate pH 8, 150 mM NaCl, 2 mM TCEP, 10% glycerol, Tom70 (400 μM) into Hsp90 (20 μM), 1:1 model, mean ± SD of 3 measurements, read-out: binding affinity (KD) of full-length Hsp90 to free Tom70) and 22 ± 1 µM in experiment [3]. Further, the “thermodynamic signature of binding to free Tom70” value in experiment [1] (20°C, pH 8, Fig 5C) is listed as “a favorable entropy change was the major driving force”. Also, in experiment [1] (higher affinity than the Hsp90EEVD peptide), the “affinity of full-length Hsp90 to free Tom70 relative to Hsp90EEVD peptide” value is given as 4 fold. For the same substance, the “kon for Hsp90 binding to Tom70 in presence of bound full-length Orf9b” value in experiment [2] was 20000 ± 10000 M⁻¹ s⁻¹. The “association rate of Hsp90 to free Tom70 (BLI, direct)” value in experiment [4] (BLI, 25°C, pH 7, 150 mM NaCl, 1% BSA, 0.6 M sucrose, 1 mM TCEP, Hsp90 immobilized) is on record as “too rapid to quantify accurately”. In experiment [4] (indirectly estimated, kon = koff(BLI)/KD(ITC), BLI 25°C pH 7, ITC 20°C pH 8, SD of at least two measurements), the “kon for Hsp90 binding to free Tom70” value was 500000 ± 200000 M⁻¹ s⁻¹. For the same substance, the “thermodynamic signature of binding to Tom70-Orf9bHelix complex” value in experiment [5] was “driven entirely by a favorable enthalpy change”.

As for YDTSRMEEVD [Hsp90EEVD], the Kd in experiment [6] and in experiment [7] was 12 ± 1 µM each time.

The values are drawn from doi:10.1101/2025.11.18.689095 (bioRxiv, 2025).
